Data taken from patent publication US20050042209A1, “MUC1 extracellular domain and cancer treatment compositions and methods derived therefrom” (priority 2000, published 2005).
Read-outs that look alike come from different tables or passages of the source. d = 2'-deoxy (DNA); r = 2'-OH (RNA)

Columns and labels:
MUC1 [1] = settings: for MUC1 protein (immunoblot): 0.8 μM
Experimental: Cell Culture: Human MCF-7 breast carcinoma and HeLa cervical carcinoma cella (obtained form the ATCC, Manassas, Va.) were grown in DMEM (high glucose; Mediatech, Cellgrow) supplemented with 10% heat-inactivated fetal calf serum (FCS) and 2 mM L-glutamate.
Immunoblot analysis: Cells were lysed in ice-cold lysis buffer (20 mM Tris-HCl, pH 8.0, 150 mM NaCl, 1% Triton-X-100, 1 mM phenylsulfonyl fluoride, 1 mM DTT, 10 μgm/ml aprotinin) for 30 min. Lysates were cleared by centrifugation for 20 min. at 4° C. as described (Yin et al, 2001). Proteins were separated by SDS-PAGE, transferred to nitrocellulose and probed with anti-DF3/MUC1 (Kufe, U.S. Pat. No. 5,506,34) or anti-β-actin (Sigma). The antigen-antibody complexes were visualized by enhanced chemiluminescence (ECL; Amersham Life Sciences).
CDDO downregulates MUC1 expression: MUC1-positive cells were treated with CDDO at concentrations of 1, 3 and 5 μM.

MUC1 [2] = experiment: Western blot of MUC1 after siRNA transfection; assay type: cell-based, human; settings: MCF-7 cells; siRNA 0.2 micromolar; FIG. 5, FIG. 6
Excerpt: Cell Culture: Human MCF-7 breast cancer cells were maintained in DMEM supplemented with 10% heat inactivated fetal bovine serum (FBS) and 1% penicillin-streptomycin mixture. Human A549 non-small cell lung cancer cells were maintained in RPMI1640 medium supplemented with 10% FBS and 1% penicillin-streptomycin mixture.
siRNAs: Five different double stranded anti-MUC1 siRNAs were designed: one against the target sequence SEQ ID NO: 63, i.e., […], with sense and antisense strands as shown in SEQ ID NO: 64 and SEQ ID NO: 65 respectively (hereinafter siRNA #1); one against the target sequence SEQ ID NO: 42, i.e., […], with sense and antisense strands as shown in SEQ ID NO: 43 and SEQ ID NO: 44 respectively (hereinafter siRNA #2); one against the target sequence SEQ ID NO: 21, i.e., […], with sense and antisense strands as shown in SEQ ID NO: 22 and SEQ ID NO: 23 respectively (hereinafter siRNA #3); one against the target sequence SEQ ID NO: 66, i.e., […], with sense and antisense strands as shown by SEQ ID NO: 67 and SEQ ID NO: 68 respectively (hereinafter siRNA #4); and one against target sequence SEQ ID NO: 69, i.e., […], with sense and antisense strands as shown by SEQ ID NO: 70 and SEQ ID NO: 71 respectively (hereinafter siRNA #5). A control siRNA was designed against the scrambled target SEQ ID NO: 72 with sense and antisense strands as shown by SEQ ID NO: 73 and SEQ ID NO: 74 respectively. Each RNA sense oligonucleotide (50 μM) was combined with equal volume of antisense oligonucleotide (50 μM) in an annealing buffer (20 mM KCl, 6 mM HEPES-KOH, pH 7.5, 0.2 mM MgCl2). The solution was incubated for 1 min at 90° C. to denature secondary structure, and placed at 37° C. for 1 hour to anneal the complementary strands. The subsequent double stranded RNAs were used as the anti-MUC1 siRNA.
Transfection: Cells (1-3×10^5 cells/well) were plated in 6-well plates in growth medium without antibiotics, and incubated overnight. After washing cells once with Opti-MEM I (Invitrogen), 800 μL of fresh Opti-MEM I and 200 μL of the Reagent (Invitrogen) were added to the cultured cells. Four hours later, 300 μL of FBS was added to the cultured cells.
Western Blot Analysis: Cell were passed a day before transfection. MUC1 siRNA (0.2 micromolar) was added with oligofectamine to cells in 0% FBS. Four hours later serum was added to a final concentration of 10%. After various time intervals (48 h, 72 h and 96 h), cells were washed and total cell lysates were prepared. Proteins were separated from cell lysates by SDS-PAGE, transferred to nitrocellulose and analyzed by immunoblotting with anti-DF3 antibodies.

[3] = tested on: intrinsic apoptotic pathway; experiment: Activation of the intrinsic apoptotic pathway in 3Y1 cells; assay type: cell-based, Rat; settings: for mitochondrial transmembrane potential: 10 mM ara-C
Experimental: (§1) Cell culture. Rat 3Y1 fibroblasts stably expressing the empty vector or full-length MUC1 (19) were cultured in Dulbecco's modified Eagle's medium containing 10% heat-inactivated fetal calf serum, 100 units/ml penicillin, […] streptomycin and 2 mM L-glutamine. Cells were treated with 25 mM LY294002 (Sigma), 10 mM 1-b-D-arabinofuranosycyltosine (ara-C; Sigma) or 50 mM gemcitabine (Eli Lilly).
Immunoblot analysis. Whole cell lysates and cytoplasmic fractions were prepared from subconfluent cells as described (Li et all., 1998; Li et al., 2001).
Assessment of mitochondrial transmembrane potential. Cells were incubated with 50 ng/ml Rhodamine 123 (Molecular Probes, Eugene, Oreg.) for 15 min at 37° C. After washing with PBS, samples were analyzed by flow cytometry using 488 nm excitation and measurement of emission through a 575/26 (ethidium) bandpass filter.
Isolation of mitochondria. Mitochondria were purified as described (Kumar et al., 2003).
MUC1 blocks activation of the intrinsic apoptotic pathway. Increases in phospho-Bad and Bcl-xL protect against apoptosis induced by activation of the intrinsic mitochondrial pathway (Van Heiden et al., 1997; Datta et al., 1995). To assess the effects of MUC1 on chemosensitivity, we treated cells with ara-C, an antimetabolite that induces release of mitochondrial cytochrome c and thereby apoptosis (Major et al., 1981; Kojima et al., 1998). Exposure of 3Y1/vector-A and -B cells to ara-C was associated with a decrease in mitochondrial transmembrane potential (FIG. 3A). […] Moreover, caspase-3-mediated cleavage of PKCd (Emoto et at., 1995) was attenuated in the MUC1 expressing cells. […] These findings indicate that MUC1 attenuates ara-C-induced activation of the intrinsic apoptotic pathway.

3Y1 fibroblasts = experiment: Apoptosis assays (TUNEL, sub-G1 DNA) in 3Y1 cells; assay type: cell-based, Rat
Experimental: as §1
Apoptosis assays. For TUNEL staining, cells were fixed in 4% paraformaldehyde, permeabilized in 0.1% Triton X-100/0.1% sodium citrate for 2 min and processed according to the manufacturer's instructions (In Situ Cell Death detection kit, fluorescein; Roche). For analysis of sub-G1 DNA, cells were washed with PBS, fixed in 70% ethanol, incubated with 2.5 mg/ml propidium iodide and 50 mg/ml RNase, and then monitored by FACScan.
MUC1 attenuates ara-C- and gemcitabine-induced apoptosis. To determine if MUC1 affects induction of apoptosis by ara-C, the 3Y1/vector and 3Y1/MUC1 cells were analyzed for TUNEL staining and sub-G1 DNA. […] Moreover, ara-C treatment of 3Y1/vector cells was associated with over 40% apoptosis as determined by sub-G1 DNA analysis.
To extend these observations to other anti-cancer agents, we treated the 3Y1/vector and 3Y1/MUC1 cells with gemcitabine. As determined by analysis of sub-G1 DNA and as found with ara-C, gemcitabine-induced apoptosis was attenuated in 3Y1/MUC1, as compared to 3Y1/vector, cells.

[4] = tested on: ZR-75-1 breast carcinoma cells; experiment: Apoptosis assay (sub-G1 DNA) in ZR-75-1 cells; assay type: cell-based, human; settings: ZR-75-1 cells; 10 and 50 μM etoposide
Experimental: Apoptosis assay: Apoptotic cells were quantified by analysis of sub-G1 DNA. Cells were harvested, washed with PBS, fixed with 80% ethanol, and incubated in PBS containing 20 ng/ml RNase (Roche) for 60 min at 37° C. Cells were stained with 40 μg/ml propidium iodide (Sigma) for 30 min at room temperature in the dark. DNA content was analyzed by flow cytometry (EPICS XL-MCL, Coulter Corp.).
As a control, stable transfection of ZR-75-1 cells with the empty reterovirus had no effect on MUC1 expression. […] By contrast, CDDP treatment of ZR-75-1/MUC1siRNA cells was associated with a clear loss of ΔΨm. In concert with these findings, cytochrome C release, as measured by immunoblot, was attenuated in CDDP-treated ZR-75-1/vector cells, as compared to ZR-75-1/MUC1siRNA cells. […] Treatment of ZR-75-1/vector cells with CDDP was associated with the induction of approximately 25% apoptosis.

HCT116 cells = experiment: Apoptosis (sub-G1 DNA, TUNEL) in HCT116 transfectants; assay type: cell-based, human; settings: HCT116/vector cells
Experimental: Methods. Apoptotic cells were quantified by analysis of sub-G1 DNA and TUNEL staining. To assess sub-G1 DNA content, cells were harvested, washed with PBS, fixed with 80% ethanol, and incubated in PBS containing 20 ng/ml RNase (Roche) for 60 min at 37° C. Cells were then stained with […] propidium iodide (Sigma) for 30 min at room temperature in the dark. DNA content was analyzed by flow cytometry (EPICS XL-MCL, Coulter Corp.). Apoptotic cells with DNA fragmentation were detected by staining with the In Situ cell death detection kit (TUNEL; Roche Applied Science) and visualized by confocal microscopy (ZEISS LSM510). After staining, cells were analyzed by flow cytometry. Other experimental procedures and methods were as described in Example 15.
Results. To determine if MUC1 affects the induction of apoptosis by CDDP, cells were analyzed for sub-G1 DNA content. […] Stimulation of cell surface death receptors with TNF-α or the TNF-related apoptosis inducing factor TRAIL is associated with activation of the extrinsic apoptotic pathway. To determine if MUC1 affects death receptor-induced apoptosis, HCT116 cells were treated with TNF-α.

MUC1 [5] = experiment: MUC1 induction by oxidative and genotoxic stress (immunoblot); settings: MCF-7 cells
Experimental: To determine whether MUC1 is induced in response to oxidative stress, MCF-7 cells were treated with hydrogen peroxide. Cell lysates were analyzed by immunoblotting with anti-DF3/MUC1 antibody. Lysates were prepared by suspending MCF-7 cells in lysis buffer (50 mM Tris, pH 7.6, 150 mM NaCl, 1 mM PMSF, 3 mM NaF, 1 mM sodium vandate, 1 mM DTT with protease inhibitors and either 1% NP-40 or 1% Brij-96) for 30 min. on ice. Lysates were cleared by centifugation and equal amounts of proteins were resolved by SDS-PAGE. Proteins were then transferred to nitrocellulose filters, blocked by incubation in 5% non-fat dry milk in PBS with 0.05% Tween-20 and probed with anti-MUC1 antibody (Pandey et al., 1995). Anti-actin was used as a control.
Similar studies were performed with genotoxic agents.

2-propyl-imadazole CDDO [CDDO-Pr-Im]
MUC1 protein (immunoblot) (MUC1 [1]): decreased levels

siRNA #4: double stranded anti-MUC1 siRNA, target SEQ ID NO: 66, sense SEQ ID NO: 67, antisense SEQ ID NO: 68 (sense GUUCAGUGCCCAGCUCUACTT; antisense GUAGAGCUGGGCACUGAACTT; sugars from the 5' end r19 d2, backbone not given here)
MUC1 expression at the protein level (immunoblot) (MUC1 [2]): downregulation of MUC1 expression

siRNA #5: double stranded anti-MUC1 siRNA, target SEQ ID NO: 69, sense SEQ ID NO: 70, antisense SEQ ID NO: 71 (sense GGUUUCUGCAGGUAAUGGUTT; antisense ACCAUUACCUGCAGAAACCTT; sugars from the 5' end r19 d2, backbone not given here)
MUC1 expression at the protein level (immunoblot) (MUC1 [2]): downregulation of MUC1 expression

Nc1ccn([C@@H]2O[C@H](CO)[C@@H](O)[C@@H]2O)c(=O)n1 [ara-C, 1-b-D-arabinofuranosycyltosine]
mitochondrial transmembrane potential ([3]; 3Y1/MUC1 cells): apparent increase | activation of caspase-9 ([3]; 3Y1/MUC1 compared to 3Y1/vector cells): attenuated | release of cytochrome c into the cytosol ([3]; 3Y1/vector and 3Y1/MUC1 cells): release of cytochrome c into the cytosol of 3Y1/vector, and not 3Y1/MUC1 | mitochondrial transmembrane potential ([3]; 3Y1/vector-A and -B cells): decrease | caspase-3-mediated cleavage of PKCd ([3]; MUC1 expressing cells): attenuated | ara-C-induced apoptosis (3Y1 fibroblasts; 3Y1/MUC1 cells): significantly attenuated | apoptosis (sub-G1 DNA analysis) (3Y1 fibroblasts; 3Y1/vector cells): over 40% | TUNEL staining (3Y1 fibroblasts; 3Y1/vector, but not 3Y1/MUC1, cells): substantial induction

siRNA #3: double stranded anti-MUC1 siRNA, target SEQ ID NO: 21, sense SEQ ID NO: 22, antisense SEQ ID NO: 23 (sense AAGGAGACUUCGGCUGCCCTT; antisense GGGCAGCCGAAGUCUCCUUTT; sugars from the 5' end r19 d2, backbone not given here)
MUC1 expression at the protein level (immunoblot) (MUC1 [2]): downregulation of MUC1 expression

COc1cc([C@@H]2c3cc4c(cc3[C@@H](O[C@@H]3O[C@@H]5CO[C@@H](C)O[C@H]5[C@H](O)[C@H]3O)[C@H]3COC(=O)[C@H]23)OCO4)cc(OC)c1O [etoposide]
sensitivity on knocking-down MUC1 expression [4]: increased substantially

TNF-α
apoptosis (HCT116 cells; TNF-α alone): failed to induce apoptosis | apoptosis (HCT116 cells; in the presence of cycloheximide (CHX), FIG. 18): induction of HCT116/vector cell apoptosis

COC(=O)[C@]12CCC(C)(C)C[C@H]1[C@H]1C(=O)C=C3[C@@]4(C)C=C(C#N)C(=O)C(C)(C)[C@@H]4CC[C@@]3(C)[C@]1(C)CC2 [CDDO-Me, CDDO methyl ester]
MUC1 expression (immunoblot) (MUC1 [1]; 1 μM, 12 hr and 24 hr): detectable at 12 hr and nearly complete at 24 hr

CC1(C)CC[C@]2(C(=O)n3ccnc3)CC[C@]3(C)[C@H](C(=O)C=C4[C@@]5(C)C=C(C#N)C(=O)C(C)(C)[C@@H]5CC[C@]43C)[C@@H]2C1 [CDDO-Im, imadzole CDDO]
MUC1 protein (immunoblot) (MUC1 [1]): decreased levels

N[C@@H](CCC(=O)N[C@@H](CS)C(=O)NCC(=O)O)C(=O)O [GSH, glutathione]
CDDO-, CDDO-Me-, CDDO-Im- and CDDO-Pr-Im-induced decreases in MUC1 (MUC1 [1]; cells treated with antioxidant): blocked the effects

COc1cccc2c1C(=O)c1c(O)c3c(c(O)c1C2=O)C[C@@](O)(C(C)=O)C[C@@H]3O[C@H]1C[C@H](N)[C@H](O)[C@H](C)O1 [daunorubicin]
MUC1 expression (immunoblot) (MUC1 [5]): rapid and transient induction

Nc1ccn([C@@H]2O[C@H](CO)[C@@H](O)C2(F)F)c(=O)n1 [gemcitabine]
gemcitabine-induced apoptosis (sub-G1 DNA) (3Y1 fibroblasts; 3Y1/MUC1 compared to 3Y1/vector cells, 50 mM gemcitabine): attenuated
